The target in series [1] is Sigma non-opioid intracellular receptor 1 (Homo sapiens, UniProt Q99720). Put plainly: Inhibition of sigma-1 receptor (unknown origin).
The next series concerns the target CYP2D6 (Homo sapiens, UniProt P10635). Put plainly: Inhibition of CYP2D6 (unknown origin) at 10 uM relative to control. Format: ADME.
Series [2] has as its target T1, 17-beta-hydroxysteroid dehydrogenase type 3 (Homo sapiens, UniProt P37058).
T1 sequence (P37058 whole entry): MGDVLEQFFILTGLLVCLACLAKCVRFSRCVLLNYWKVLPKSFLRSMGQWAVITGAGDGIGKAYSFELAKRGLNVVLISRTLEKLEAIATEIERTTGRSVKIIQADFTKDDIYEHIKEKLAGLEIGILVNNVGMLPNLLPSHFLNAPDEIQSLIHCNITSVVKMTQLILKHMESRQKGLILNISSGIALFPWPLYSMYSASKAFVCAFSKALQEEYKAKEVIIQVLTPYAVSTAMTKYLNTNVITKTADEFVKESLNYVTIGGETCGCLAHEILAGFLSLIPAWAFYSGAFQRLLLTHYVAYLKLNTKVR
Put plainly: Inhibition of recombinant 17beta-HSD3 (unknown origin) assessed as conversion of androstenedione to testosterone after 90 mins by scintillation counting analysis.

The record followed here is ChEMBL document CHEMBL3217743, “Reduction of acyl glucuronidation in a series of acidic 11-hydroxysteroid dehydrogenase type 1 (11-HSD1) inhibitors: the discovery of AZD6925” (Medchemcomm, 2012).

Bounds are passed on as bounds.

Chain of Sigma non-opioid intracellular receptor 1 (Q99720 whole entry): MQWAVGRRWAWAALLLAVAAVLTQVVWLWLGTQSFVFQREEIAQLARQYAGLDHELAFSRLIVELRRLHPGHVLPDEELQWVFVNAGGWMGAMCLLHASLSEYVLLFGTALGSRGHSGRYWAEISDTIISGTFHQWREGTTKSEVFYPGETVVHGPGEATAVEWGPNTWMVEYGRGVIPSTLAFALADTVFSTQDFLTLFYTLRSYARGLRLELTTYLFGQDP
Chain of CYP2D6 (P10635 whole entry): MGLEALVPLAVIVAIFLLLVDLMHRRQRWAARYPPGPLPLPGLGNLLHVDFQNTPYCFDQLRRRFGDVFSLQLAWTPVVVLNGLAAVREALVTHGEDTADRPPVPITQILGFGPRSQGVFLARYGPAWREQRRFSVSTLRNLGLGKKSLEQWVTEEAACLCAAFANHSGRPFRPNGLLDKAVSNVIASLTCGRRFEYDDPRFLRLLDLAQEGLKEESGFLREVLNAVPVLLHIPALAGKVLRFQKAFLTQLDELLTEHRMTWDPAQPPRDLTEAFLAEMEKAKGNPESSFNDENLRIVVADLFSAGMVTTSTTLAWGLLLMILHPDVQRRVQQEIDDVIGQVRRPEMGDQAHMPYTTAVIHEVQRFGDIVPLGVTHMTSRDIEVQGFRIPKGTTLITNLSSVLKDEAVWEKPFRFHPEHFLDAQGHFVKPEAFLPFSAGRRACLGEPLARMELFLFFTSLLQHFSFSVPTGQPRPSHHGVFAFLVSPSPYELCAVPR

Turning to `CSc1nc(N2C[C@@H]3[C@H](C2)[C@H]3C(=O)O)ccc1C(=O)NC12CC3CC(CC(C3)C1)C2`, the IC50 (commonly the concentration needed to halve the response being measured) was found to be 30 µM in series [1] and 25 µM in series [2]. Moreover, the inhibition (in general, the relative decrease from the control value, in per cent) at 10 µM at CYP2D6 was less than 25%.
